Measurements from ChEMBL document CHEMBL3817807, “Sequence-specific DNA binding by long hairpin pyrrole-imidazole polyamides containing an 8-amino-3,6-dioxaoctanoic acid unit” (Bioorg Med Chem, 2016).
In brackets after ≈: the same amount, converted by molar mass. Values belong to the compound of their own block, whether it stands above or below them. Activity calls are given as the source filed them. The calls are words filed in the database; no cut-off is given here.

How the values were obtained:
[1] = Binding affinity to TGGCTAACA oligonucleotide DNA sequence (unknown origin) at 50 nM incubated for 16 hrs by PCR based Bind-n-Seq analysis
[2] = Binding affinity to TGGTAGACA oligonucleotide DNA sequence (unknown origin) at 50 nM incubated for 16 hrs by PCR based Bind-n-Seq analysis
[3] = Binding affinity to AGGCTTACA oligonucleotide DNA sequence (unknown origin) at 50 nM incubated for 16 hrs by PCR based Bind-n-Seq analysis
[4] = Binding affinity to AGGCAGACA oligonucleotide DNA sequence (unknown origin) at 50 nM incubated for 16 hrs by PCR based Bind-n-Seq analysis
[5] = Binding affinity to CGGCTAACA oligonucleotide DNA sequence (unknown origin) at 50 nM incubated for 16 hrs by PCR based Bind-n-Seq analysis
[6] = Binding affinity to ATGCAGACA oligonucleotide DNA sequence (unknown origin) at 50 nM incubated for 16 hrs by PCR based Bind-n-Seq analysis
[7] = Binding affinity to AGGCTGATA oligonucleotide DNA sequence (unknown origin) at 50 nM incubated for 16 hrs by PCR based Bind-n-Seq analysis
[8] = Binding affinity to AGACTGACA oligonucleotide DNA sequence (unknown origin) at 50 nM incubated for 16 hrs by PCR based Bind-n-Seq analysis
[9] = Binding affinity to ATGCAGTCA oligonucleotide DNA sequence (unknown origin) at 50 nM incubated for 16 hrs by PCR based Bind-n-Seq analysis
[10] = Binding affinity to AGACAGTCA oligonucleotide DNA sequence (unknown origin) at 50 nM incubated for 16 hrs by PCR based Bind-n-Seq analysis
[11] = Drug uptake in human MDA-MB-231 cell nucleus at 10 uM after 72 hrs by FITC/Hoechst 33342-staining based confocal microscopic analysis; assay type: ADME; conditions: mda-mb-231, 72 h
[12] = Binding affinity to TTGTCGGCC oligonucleotide DNA sequence (unknown origin) at 50 nM incubated for 16 hrs by PCR based Bind-n-Seq analysis
[13] = Binding affinity to AGTCTGCCT oligonucleotide DNA sequence (unknown origin) at 50 nM incubated for 16 hrs by PCR based Bind-n-Seq analysis
[14] = Binding affinity to AGGCAGACT oligonucleotide DNA sequence (unknown origin) at 50 nM incubated for 16 hrs by PCR based Bind-n-Seq analysis
[15] = Binding affinity to TGTCAGCCT oligonucleotide DNA sequence (unknown origin) at 50 nM incubated for 16 hrs by PCR based Bind-n-Seq analysis
[16] = Binding affinity to ATGTCTGCC oligonucleotide DNA sequence (unknown origin) at 50 nM incubated for 16 hrs by PCR based Bind-n-Seq analysis
[17] = Binding affinity to TGGCAGACT oligonucleotide DNA sequence (unknown origin) at 50 nM incubated for 16 hrs by PCR based Bind-n-Seq analysis
[18] = Binding affinity to TGGCAGACA oligonucleotide DNA sequence (unknown origin) at 50 nM incubated for 16 hrs by PCR based Bind-n-Seq analysis
[19] = Binding affinity to TAGTCGGCC oligonucleotide DNA sequence (unknown origin) at 50 nM incubated for 16 hrs by PCR based Bind-n-Seq analysis
[20] = Binding affinity to AGTCGGCCT oligonucleotide DNA sequence (unknown origin) at 50 nM incubated for 16 hrs by PCR based Bind-n-Seq analysis
[21] = Binding affinity to AGTCAGCCT oligonucleotide DNA sequence (unknown origin) at 50 nM incubated for 16 hrs by PCR based Bind-n-Seq analysis
[22] = Binding affinity to 5'-biotin labeled GCGAGGCAGACACGCTTTTGCGTGTCTGCCTCGC-3' DNA (unknown origin) by SPR analysis
[23] = Binding affinity to 5'-biotin labeled GCGAGGCAGACACGCTTTTGCGTGTCTGCCTCGC-3' DNA (unknown origin) assessed as association rate by SPR analysis
[24] = Aqueous solubility of the compound […] assessed as saturation concentration by nanodrop analysis; assay type: physicochemical
[25] = Binding affinity to 5'-biotin labeled GCGAGGCAGACACGCTTTTGCGTGTCTGCCTCGC-3' DNA (unknown origin) assessed as dissociation rate by SPR analysis
[26] = Binding affinity to GTCTCCGAA oligonucleotide DNA sequence (unknown origin) at 50 nM incubated for 16 hrs by PCR based Bind-n-Seq analysis
[27] = Binding affinity to AGGCTCTCA oligonucleotide DNA sequence (unknown origin) at 50 nM incubated for 16 hrs by PCR based Bind-n-Seq analysis
[28] = Binding affinity to AATTTACCT oligonucleotide DNA sequence (unknown origin) at 50 nM incubated for 16 hrs by PCR based Bind-n-Seq analysis
[29] = Binding affinity to ATCGGCAGA oligonucleotide DNA sequence (unknown origin) at 50 nM incubated for 16 hrs by PCR based Bind-n-Seq analysis
[30] = Binding affinity to ACAGCCTCG oligonucleotide DNA sequence (unknown origin) at 50 nM incubated for 16 hrs by PCR based Bind-n-Seq analysis
[31] = Binding affinity to GGGCAGTCA oligonucleotide DNA sequence (unknown origin) at 50 nM incubated for 16 hrs by PCR based Bind-n-Seq analysis
[32] = Binding affinity to GAGTCTCCC oligonucleotide DNA sequence (unknown origin) at 50 nM incubated for 16 hrs by PCR based Bind-n-Seq analysis
[33] = Binding affinity to GTGAGCCTA oligonucleotide DNA sequence (unknown origin) at 50 nM incubated for 16 hrs by PCR based Bind-n-Seq analysis
[34] = Binding affinity to CTCTCTGCA oligonucleotide DNA sequence (unknown origin) at 50 nM incubated for 16 hrs by PCR based Bind-n-Seq analysis
[35] = Binding affinity to GGGCTAGAC oligonucleotide DNA sequence (unknown origin) at 50 nM incubated for 16 hrs by PCR based Bind-n-Seq analysis

- Activity [1]: Active
- Activity [2]: Active
- Activity [3]: Active
- Activity [4]: Active
- Activity [5]: Active
- Activity [6]: Active
- Activity [7]: Active
- Activity [8]: Active
- Activity [9]: Active
- Activity [10]: Active
Compound: CC(=O)Nc1cn(C)c(C(=O)Nc2cn(C)c(C(=O)Nc3cc(C(=O)NCCC(=O)Nc4cn(C)c(C(=O)Nc5cc(C(=O)Nc6cc(C(=O)NCCCC(=O)Nc7cn(C)c(C(=O)Nc8cc(C(=O)Nc9cc(C(=O)NCCC(=O)Nc%10cn(C)c(C(=O)Nc%11cc(C(=O)Nc%12cc(C(=O)NCCC(=O)NCCCN(C)CCCNC(=O)CCOCCOCCOCCOCCOCCOCCOCCOCCOCCOCCOCCOCCNC(=O)CCCC[C@@H]%13SC[C@@H]%14NC(=O)N[C@@H]%14%13)n(C)c%12)n(C)c%11)n%10)n(C)c9)n(C)c8)n7)n(C)c6)n(C)c5)n4)n(C)c3)n2)n1

- Drug uptake [11]: Active
Compound: CC(=O)Nc1cn(C)c(C(=O)Nc2cn(C)c(C(=O)Nc3cc(C(=O)NCCC(=O)Nc4cn(C)c(C(=O)Nc5cc(C(=O)Nc6cc(C(=O)NCCCC(=O)Nc7cn(C)c(C(=O)Nc8cc(C(=O)Nc9cc(C(=O)NCCC(=O)Nc%10cn(C)c(C(=O)Nc%11cc(C(=O)Nc%12cc(C(=O)NCCC(=O)NCCCN(C)CCCNC(=S)Nc%13ccc%14c(c%13)C(=O)OC%14%13c%14ccc(O)cc%14Oc%14cc(O)ccc%14%13)n(C)c%12)n(C)c%11)n%10)n(C)c9)n(C)c8)n7)n(C)c6)n(C)c5)n4)n(C)c3)n2)n1

- Activity [12]: Active
- Activity [13]: Active
- Activity [14]: Active
- Activity [15]: Active
- Activity [16]: Active
- Activity [17]: Active
- Activity [18]: Active
- Activity [19]: Active
- Activity [20]: Active
- Activity [21]: Active
Compound: CC(=O)Nc1cn(C)c(C(=O)Nc2cn(C)c(C(=O)NCCOCCOCC(=O)Nc3cn(C)c(C(=O)Nc4cc(C(=O)Nc5cc(C(=O)NCCCC(=O)Nc6cn(C)c(C(=O)Nc7cc(C(=O)NCCOCCOCC(=O)Nc8cn(C)c(C(=O)Nc9cc(C(=O)Nc%10cc(C(=O)NCCC(=O)NCCCN(C)CCCNC(=O)CCOCCOCCOCCOCCOCCOCCOCCOCCOCCOCCOCCOCCNC(=O)CCCC[C@@H]%11SC[C@@H]%12NC(=O)N[C@@H]%12%11)n(C)c%10)n(C)c9)n8)n(C)c7)n6)n(C)c5)n(C)c4)n3)n2)n1

- Drug uptake [11]: Active
Compound: CC(=O)Nc1cn(C)c(C(=O)Nc2cn(C)c(C(=O)NCCOCCOCC(=O)Nc3cn(C)c(C(=O)Nc4cc(C(=O)Nc5cc(C(=O)NCCCC(=O)Nc6cn(C)c(C(=O)Nc7cc(C(=O)NCCOCCOCC(=O)Nc8cn(C)c(C(=O)Nc9cc(C(=O)Nc%10cc(C(=O)NCCC(=O)NCCCN(C)CCCNC(=S)Nc%11ccc%12c(c%11)C(=O)OC%12%11c%12ccc(O)cc%12Oc%12cc(O)ccc%12%11)n(C)c%10)n(C)c9)n8)n(C)c7)n6)n(C)c5)n(C)c4)n3)n2)n1

- Kd [22]: 0.018 µM
- Ka [23]: 1 ×10⁵ /Ms
- solubility [24]: 12.2 mM (≈ 23.3 mg/mL)
- Kd [25]: 1.8 ×10⁻³ /s
Compound: CC(=O)Nc1cn(C)c(C(=O)Nc2cn(C)c(C(=O)NCCOCCOCC(=O)Nc3cn(C)c(C(=O)Nc4cc(C(=O)Nc5cc(C(=O)NCCCC(=O)Nc6cn(C)c(C(=O)Nc7cc(C(=O)Nc8cc(C(=O)NCCC(=O)Nc9cn(C)c(C(=O)Nc%10cc(C(=O)Nc%11cc(C(=O)NCCC(=O)NCCCN(C)CCCN)n(C)c%11)n(C)c%10)n9)n(C)c8)n(C)c7)n6)n(C)c5)n(C)c4)n3)n2)n1

- Kd [22]: 0.0059 µM
- Ka [23]: 2.4 ×10⁵ /Ms
- solubility [24]: 9.1 mM (≈ 17.8 mg/mL)
- Kd [25]: 1.4 ×10⁻³ /s
Compound: CC(=O)Nc1cn(C)c(C(=O)Nc2cn(C)c(C(=O)Nc3cc(C(=O)NCCC(=O)Nc4cn(C)c(C(=O)Nc5cc(C(=O)Nc6cc(C(=O)NCCCC(=O)Nc7cn(C)c(C(=O)Nc8cc(C(=O)Nc9cc(C(=O)NCCC(=O)Nc%10cn(C)c(C(=O)Nc%11cc(C(=O)Nc%12cc(C(=O)NCCC(=O)NCCCN(C)CCCN)n(C)c%12)n(C)c%11)n%10)n(C)c9)n(C)c8)n7)n(C)c6)n(C)c5)n4)n(C)c3)n2)n1

- Kd [22]: 0.25 µM
- Ka [23]: 1 ×10⁴ /Ms
- Kd [25]: 4.5 ×10⁻³ /s
Compound: CC(=O)Nc1cn(C)c(C(=O)Nc2cn(C)c(C(=O)Nc3cc(C(=O)NCCC(=O)Nc4cn(C)c(C(=O)Nc5cc(C(=O)Nc6cc(C(=O)NCCCC(=O)Nc7cn(C)c(C(=O)Nc8cc(C(=O)NCCOCCOCC(=O)Nc9cn(C)c(C(=O)Nc%10cc(C(=O)Nc%11cc(C(=O)NCCC(=O)NCCCN(C)CCCN)n(C)c%11)n(C)c%10)n9)n(C)c8)n7)n(C)c6)n(C)c5)n4)n(C)c3)n2)n1

- Activity [26]: Active
- Activity [27]: Active
- Activity [28]: Active
- Activity [29]: Active
- Activity [30]: Active
- Activity [31]: Active
- Activity [32]: Active
- Activity [33]: Active
- Activity [34]: Active
- Activity [35]: Active
Compound: CC(=O)Nc1cn(C)c(C(=O)Nc2cn(C)c(C(=O)NCCC(=O)NCCC(=O)Nc3cn(C)c(C(=O)Nc4cc(C(=O)Nc5cc(C(=O)NCCCC(=O)Nc6cn(C)c(C(=O)Nc7cc(C(=O)Nc8cc(C(=O)NCCC(=O)Nc9cn(C)c(C(=O)Nc%10cc(C(=O)Nc%11cc(C(=O)NCCC(=O)NCCCN(C)CCCNC(=O)CCOCCOCCOCCOCCOCCOCCOCCOCCOCCOCCOCCOCCNC(=O)CCCC[C@@H]%12SC[C@@H]%13NC(=O)N[C@@H]%13%12)n(C)c%11)n(C)c%10)n9)n(C)c8)n(C)c7)n6)n(C)c5)n(C)c4)n3)n2)n1

- Drug uptake [11]: Active
Compound: CC(=O)Nc1cn(C)c(C(=O)Nc2cn(C)c(C(=O)NCCOCCOCC(=O)Nc3cn(C)c(C(=O)Nc4cc(C(=O)Nc5cc(C(=O)NCCCC(=O)Nc6cn(C)c(C(=O)Nc7cc(C(=O)Nc8cc(C(=O)NCCC(=O)Nc9cn(C)c(C(=O)Nc%10cc(C(=O)Nc%11cc(C(=O)NCCC(=O)NCCCN(C)CCCNC(=S)Nc%12ccc%13c(c%12)C(=O)OC%13%12c%13ccc(O)cc%13Oc%13cc(O)ccc%13%12)n(C)c%11)n(C)c%10)n9)n(C)c8)n(C)c7)n6)n(C)c5)n(C)c4)n3)n2)n1

- Kd [22]: 0.016 µM
- Ka [23]: 1.8 ×10⁴ /Ms
- solubility [24]: 13.9 mM (≈ 25.9 mg/mL)
- Kd [25]: 3 ×10⁻⁴ /s
Compound: CC(=O)Nc1cn(C)c(C(=O)Nc2cn(C)c(C(=O)NCCOCCOCC(=O)Nc3cn(C)c(C(=O)Nc4cc(C(=O)Nc5cc(C(=O)NCCCC(=O)Nc6cn(C)c(C(=O)Nc7cc(C(=O)NCCOCCOCC(=O)Nc8cn(C)c(C(=O)Nc9cc(C(=O)Nc%10cc(C(=O)NCCC(=O)NCCCN(C)CCCN)n(C)c%10)n(C)c9)n8)n(C)c7)n6)n(C)c5)n(C)c4)n3)n2)n1

- Kd [22]: 0.015 µM
- Ka [23]: 1.3 ×10⁵ /Ms
- Kd [25]: 1.9 ×10⁻³ /s
Compound: CC(=O)Nc1cn(C)c(C(=O)Nc2cn(C)c(C(=O)NCCC(=O)NCCC(=O)Nc3cn(C)c(C(=O)Nc4cc(C(=O)Nc5cc(C(=O)NCCCC(=O)Nc6cn(C)c(C(=O)Nc7cc(C(=O)Nc8cc(C(=O)NCCC(=O)Nc9cn(C)c(C(=O)Nc%10cc(C(=O)Nc%11cc(C(=O)NCCC(=O)NCCCN(C)CCCN)n(C)c%11)n(C)c%10)n9)n(C)c8)n(C)c7)n6)n(C)c5)n(C)c4)n3)n2)n1
